Assay results reported in patent US6555356B2, “Methods for microbial regulation” (Unisearch Limited, priority 1995, dated 2003).
≈ marks a conversion by molar mass, not a printed value. Entries after “also recorded” stand apart in the source; their conditions may differ.

Legend:
Format in all cases: cell-based
Serratia liquefaciens [1] = test: Serratia liquefaciens swarming assay; settings: 5-100 μg/ml in LB agar (0.7%) plates
Description: (§1) Serratia liquefaciens was grown in liquid LB medium at room temperature to an optical density of 0.3 at 450 nm and stable inoculated onto LB agar (0.7% agar) plates. Plates were incubated at 30° C. and observed regularly for swarming behaviour. The effect on swarming of furanone compounds was tested by adding (after sterilisation and cooling of the agar) compounds 1-13 (FIG. 3). in the concentration range of 5-100 μg/ml, to the plates.

Serratia liquefaciens [2] = test: Serratia liquefaciens exoprotease assay (skim milk agar clearing zones); settings: 100 μg/ml; for exoprotease activity of the wild type: Serratia liquefaciens wild type; for Effect on HSL phenotype: exoenzymes (exoprotease production): Serratia liquefaciens
Description: For assays of production of exoproteases by Serratia liquifaciens the bacteria were cultured as above and inoculated in liquid LB medium. The effects of furanone compounds were tested by adding compounds 3 and 4 (FIG. 3) at 100 μg/ml. Aliquots were withdrawn from the cultures, centrifuged and sterile filtered. Sixty microliters of supernatant were added to wells in skim milk agar plates (1.5% skim milk in M9 medium). Plates were incubated at room temperature and observed for clearing zones around the wells.

Serratia liquefaciens [3] = test: Growth of Serratia liquefaciens in liquid LB medium; settings: 100 μg/ml
Description: (§2) The effect on growth of Serratia liquefaciens by furanone compounds was also measured in liquid LB medium by comparing growth of cultures without the addition of compounds versus growth of cultures with added furanone compounds (100 μg/ml of compounds 1-13 (FIG. 3) in separate cultures). Growth was measured as optical density at 450 nm and followed over a 48 hr period.

Pseudomonas aeruginosa [4] = test: Pseudomonas aeruginosa (elastase) assay; settings: 100 μg/ml in elastin agar
Description: (§3) Inoculants from precultures were streaked onto Peptone-Tryptic Soy Broth agar containing 0.3% elastin. Plates were incubated at 37° C. and observed for hydrolysis of the elastin. The effect of furanone compounds was assess by adding compounds 1-4 (100 μg/ml) to the plates and comparing zones of hydrolysis in plates with and without the compounds.

Pseudomonas aeruginosa [5] = test: Growth of Pseudomonas aeruginosa on plates; settings: 100 μg/ml
Description: as §3

Erwinia carotovora [6] = test: Erwinia carotovora (exoenzyme) assay on potato slices
Description: Inoculants from precultured E. carotovora were added to slices of potatoes. Degradation (softening and browning) of the potato was compared on slices with and without furanone compounds (3 and 4).

Erwinia carotovora [7] = test: Growth of Erwinia carotovora
Vibrio fisheri [8] = test: Vibrio fisheri bioluminescence assay; settings: 100 μg/ml, visual inspection of agar plates
Description: (§4) Initial assays for both strains of Vibrio were streaked onto LB agar plates (with 2% NaCl) with and without furanone compounds 1-4 at 5-100 μg/ml. Bioluminescence of the plates was visually assessed after 24 hours of incubation at room temperature. In subsequent assays, both strains were grown in liquid culture in the presence of furanones. Bioluminescence was assayed via a luminometer. The effects of furanones on growth of both strains were assayed as above.

Vibrio harveyi [9] = test: Vibrio harveyi bioluminescence assay; settings: 100 μg/ml, visual inspection of agar plates
Description: as §4

Vibrio fisheri [10] = test: Growth of Vibrio fisheri
Description: as §2, §4

Vibrio harveyi [11] = test: Growth of Vibrio harveyi
Description: as §2, §4

strain R12 [12] = test: Marine isolate swimming, strain R12
strain R12 [13] = test: Marine isolate growth in liquid media, strain R12
Description: as §2
(§5) Methods followed those described for Serratia liquefaciens (above). Inhibition of growth of these bacteria by furanones was assessed as above.

strain R12 [14] = test: Marine isolate swarming, strain R12
Description: as §1, §5

strain R86 [15] = test: Marine isolate swimming, strain R86
strain R86 [16] = test: Marine isolate growth in liquid media, strain R86
Description: as §2, §5

strain R86 [17] = test: Marine isolate swarming, strain R86
Description: as §1, §5

strain R130 [18] = test: Marine isolate swimming, strain R130
strain R130 [19] = test: Marine isolate growth in liquid media, strain R130
Description: as §2, §5

strain R130 [20] = test: Marine isolate swarming, strain R130
Description: as §1, §5

strain V21 [21] = test: Marine isolate swimming, strain V21
strain V21 [22] = test: Marine isolate growth in liquid media, strain V21
Description: as §2, §5

strain V21 [23] = test: Marine isolate swarming, strain V21
Description: as §1, §5

strain V54 [24] = test: Marine isolate swimming, strain V54
strain V54 [25] = test: Marine isolate growth in liquid media, strain V54
Description: as §2, §5

strain V54 [26] = test: Marine isolate swarming, strain V54
Description: as §1, §5

strain V55 [27] = test: Marine isolate swimming, strain V55
strain V55 [28] = test: Marine isolate growth in liquid media, strain V55
Description: as §2, §5

strain V55 [29] = test: Marine isolate swarming, strain V55
Description: as §1, §5

Candida albicans = test: Fungal growth inhibition zone assay, Candida albicans
Description: (§6) In addition to the tests described above, the effects of selected compounds of the general formula 2 on growth of bacteria, one yeast (Candida albicans) and one fungus (Helminthosporium sp.) were assessed. Bacteria were grown in liquid media in the presence of different concentrations of furanones and growth measured via changes in optical density (OD). Fungal assays were done by inoculating agar plates with spores. These plates contained different concentrations of furanone compounds in wells within the plates. Zones of inhibition around these wells were measured after 48 hours.

Helminthosporium sp. = test: Fungal growth inhibition zone assay, Helminthosporium sp.
Description: as §6

[30] = test system: Chromobacterium violencia; test: Growth of Chromobacterium violencia; settings: 100 μg/ml
Description: as §2
A mutant of Chromobacterium violencia negative for the HSL auto inducer was used in the assay. The strain was pour plated in LB medium at high density and wells were punched after the media had set. Sterile, filtered supernatants from various HSL producing strains were added to the wells. Plates were incubated at 30° C. and observed for the formation of purple zones (due to […]) around the wells. The effects of furanone compounds 1 and 2 (FIG. 3) were assessed by running this assay on plates of LB medium containing furanone compounds at a concentration of 100 μg/ml. The effects of the compounds on growth of Chromobacterium were assessed as above.

Proteus mirabilis [31] = test: Proteus mirabilis swarming assay; settings: LB10 with 1.5% agar
Proteus mirabilis [32] = test: Proteus mirabilis swimming; settings: concentrations inhibitory to swarming, LB10 with 0.3% agar
Proteus mirabilis [33] = test: Proteus mirabilis growth; settings: concentrations inhibitory to swarming, 37 C
Description: as §5

SMILES	Effect on HSL phenotype: swarming (Serratia liquefaciens [1])	exoprotease activity of the wild type (Serratia liquefaciens [2])	Effect on HSL phenotype: exoenzymes (exoprotease production) (Serratia liquefaciens [2])	Effect on bacterial growth (Serratia liquefaciens [3])	Effect on HSL phenotype: elastase (Pseudomonas aeruginosa [4])	Effect on bacterial growth (Pseudomonas aeruginosa [5])	Effect on HSL phenotype: exoenzymes (Erwinia carotovora [6])	Effect on bacterial growth (Erwinia carotovora [7])	Effect on bacterial growth (Vibrio fisheri [10])	Effect on bacterial growth (Vibrio harveyi [11])	Minimum inhibitory concentration, Swimming (strain R12 [12])	Minimum inhibitory concentration, Growth (strain R12 [13])	Minimum inhibitory concentration, Swarming (strain R12 [14])	Minimum inhibitory concentration, Swimming (strain R86 [15])	Minimum inhibitory concentration, Growth (strain R86 [16])	Minimum inhibitory concentration, Swarming (strain R86 [17])	Minimum inhibitory concentration, Swimming (strain R130 [18])	Minimum inhibitory concentration, Growth (strain R130 [19])	Minimum inhibitory concentration, Swarming (strain R130 [20])	Minimum inhibitory concentration, Swimming (strain V21 [21])	other results
CCCC(OC(C)=O)C1=C(Br)C(=CBr)OC1=O (stereo not shown) [Compound 3]	inhibit	3 and 4 decreases	inhibit; also recorded: decrease/	no effect	inhibited; also recorded: delay/	no effect	no effect	no effect	no effect	no effect	50 µg/mL (≈ 136 µM)	>50 µg/mL	5 µg/mL (≈ 13.6 µM)	>50 µg/mL	>50 µg/mL	5 µg/mL (≈ 13.6 µM)	>50 µg/mL	25 µg/mL (≈ 67.9 µM)	25 µg/mL (≈ 67.9 µM)	25 µg/mL (≈ 67.9 µM)	Effect on HSL phenotype: luminescence (Vibrio fisheri [8]): inhibit; Effect on HSL phenotype: luminescence (Vibrio harveyi [9]): inhibit; Minimum inhibitory concentration, Growth (strain V21 [22]): 5 µg/mL (≈ 13.6 µM); Minimum inhibitory concentration, Swarming (strain V21 [23]): 5 µg/mL (≈ 13.6 µM); Minimum inhibitory concentration, Swimming (strain V54 [24]): 5 µg/mL (≈ 13.6 µM); Minimum inhibitory concentration, Growth (strain V54 [25]): 25 µg/mL (≈ 67.9 µM); Minimum inhibitory concentration, Swarming (strain V54 [26]): 5 µg/mL (≈ 13.6 µM); Minimum inhibitory concentration, Swimming (strain V55 [27]): 5 µg/mL (≈ 13.6 µM); Minimum inhibitory concentration, Growth (strain V55 [28]): 5 µg/mL (≈ 13.6 µM); Minimum inhibitory concentration, Swarming (strain V55 [29]): 5 µg/mL (≈ 13.6 µM); width of inhibition zone (Candida albicans; amount added 0.1 μg): 0 mm; width of inhibition zone (Candida albicans; amount added 1 μg): 0 mm; width of inhibition zone (Candida albicans; amount added 10 μg): 1-2 mm; width of inhibition zone (Candida albicans; amount added 100 μg): 2-3 mm; width of inhibition zone (Helminthosporium sp.; amount added 0.1 μg): 0 mm; width of inhibition zone (Helminthosporium sp.; amount added 1 μg): 0 mm; width of inhibition zone (Helminthosporium sp.; amount added 10 μg): 6-9 mm; width of inhibition zone (Helminthosporium sp.; amount added 100 μg): 6-20 mm
CCCC(O)C1=C(Br)C(=CBr)OC1=O (stereo not shown) [Compound 4]	inhibit	3 and 4 decreases	inhibit; also recorded: decrease/	no effect	inhibited; also recorded: delay/	no detectable effect	decreases; also recorded: inhibit	without inhibiting; also recorded: no effect	no effect	no effect	25 µg/mL (≈ 76.7 µM)	25 µg/mL (≈ 76.7 µM)	5 µg/mL (≈ 15.3 µM)	25 µg/mL (≈ 76.7 µM)	25 µg/mL (≈ 76.7 µM)	5 µg/mL (≈ 15.3 µM)	25 µg/mL (≈ 76.7 µM)	25 µg/mL (≈ 76.7 µM)	5 µg/mL (≈ 15.3 µM)	5 µg/mL (≈ 15.3 µM)	Effect on bacterial growth [30]: inhibit; Effect on swarming (Proteus mirabilis [31]): inhibited; Effect on swimming (Proteus mirabilis [32]): did not affect; Effect on growth (Proteus mirabilis [33]): did not affect; Minimum inhibitory concentration, Growth (strain V21 [22]): 5 µg/mL (≈ 15.3 µM); Minimum inhibitory concentration, Swarming (strain V21 [23]): 5 µg/mL (≈ 15.3 µM); Minimum inhibitory concentration, Swimming (strain V54 [24]): 5 µg/mL (≈ 15.3 µM); Minimum inhibitory concentration, Growth (strain V54 [25]): 25 µg/mL (≈ 76.7 µM); Minimum inhibitory concentration, Swarming (strain V54 [26]): 5 µg/mL (≈ 15.3 µM); Minimum inhibitory concentration, Swimming (strain V55 [27]): 5 µg/mL (≈ 15.3 µM); Minimum inhibitory concentration, Growth (strain V55 [28]): 25 µg/mL (≈ 76.7 µM); Minimum inhibitory concentration, Swarming (strain V55 [29]): 5 µg/mL (≈ 15.3 µM)
